Tested on: K98450-129-R-PDC multicell spheroids, viability
Assay: Anticancer human tumor K98450-129-R-PDC patient-derived colon adenocarcinoma cell line growth inhibition [PI3K]
Conditions: for IC50: curve of first compound; for viability, T/C: stronger effect = lower value
From the text: Combinatorial screen of targeted agents with the PI3K inhibitors inavolisib, alpelisib, duvelisib, and copanlisib in multi-cell type tumor spheroids
A high-throughput screen of multi-cell type tumor spheroids was designed to identify active combinations of targeted small molecules and PI3K pathway inhibitors. Complex spheroids include a stromal component modeled by human endothelial cells (HUVEC) and fibroblasts modeled by human mesenchymal stem cells (MSCs). The concentration ranges selected for each drug and investigational agent were based upon clinically achievable concentrations if the clinical Cmax of the agent was known.
Compounds. The drugs and investigational agents: inavolisib (NSC800729), alpelisib (NSC765974), duvelisib (NSC772469), copanlisib (NSC816437), ipatasertib (NSC767898), afuresertib (NSC778305), talazoparib (NSC767125), sapanisertib (NSC764658), selumetinib (NSC741078), tovorafenib (DAY101, NSC766906), vemurafenib (NSC761431), ravoxertinib (NSC781343), sotorasib (NSC818433), MRTX1133 (NSC 836407), abemaciclib (NSC 768073), palbociclib (NSC758247), venetoclax (NSC 766270), SY5609 (NSC837396), enzalutamide (NSC755605), and darolutamide (NSC825331), were obtained from the National Cancer Institute (NCI) Developmental Therapeutics Program Chemical Repository. The FDA-approved anticancer drug set is available from the NCI Developmental Therapeutics Program. […] The stock solutions were prepared in dimethyl sulfoxide (DMSO, Sigma-Aldrich, St. Louis, MO, cat. D2650) at 800-fold the tested concentration and stored at -70 degrees C prior to their use. All drugs and investigational agents were tested over a range starting from a high concentration at or near the clinical Cmax and decreasing in half-log increments. If the clinical Cmax for an agent had not been determined, the highest concentration tested was 10 microM.
Cell Culture. All cells were maintained in an incubator at 37 degrees C and 5% CO2 with 95% humidity. The PDC lines were cultured according to standard operating procedures established by the NCI PDMR (https://pdmr.cancer.gov/sops/default.htm). All PDCs were thawed and cultured in Matrigel-coated flasks prepared with a working solution of 1X Ham's F-12 nutrient mix, without supplementation (Invitrogen, Waltham, MA, cat. 11765054), 100 U/mL penicillin-streptomycin (Invitrogen, cat. 15140122), and 2.5% Matrigel (Corning Inc., Corning, NY, cat. 354248) for the first three passages. The 354836-022-R-J1-PDC, 475296-252-R-J1-PDC, and 997726-040-R-J2-PDC lines were cultured in 6A media, which includes advanced DMEM/F-12 (Thermo Fisher Scientific, cat. 12634028), 10 mM HEPES (Thermo Fisher Scientific, cat. 15630080), 1X GlutaMAX supplement (Thermo Fisher Scientific, cat. 35050061), 0.1 mg/mL primocin (InvivoGen, San Diego, CA, cat. ant-pm-2), 10% defined fetal bovine serum, heat inactivated (HyClone Laboratories Inc., Logan, UT, cat. SH30070.03HI), 50% L-WRN conditioned media (ATCC, cat. CRL-3276), 1.25 mM N-Acetyl-L-cysteine (Sigma-Aldrich, cat. A9165), 10 mM nicotinamide (Sigma-Aldrich, cat. N0636), 1X B-27 supplement (Thermo Fisher Scientific, cat. 17504044), 1X N-2 supplement (Thermo Fisher Scientific, cat. 17502048), and 10 microM Y-27632 dihydrochloride (Tocris Bioscience, Bristol, United Kingdom, cat. 1254). The 624824-186-R-J2-PDC line was cultured in 6C/Colon 1B media, which includes all 6A media components plus 50 ng/mL human EGF recombinant protein (Thermo Fisher Scientific, cat. PHG0311). […]

[1] = second compound 0.00316 µM, first compound 0.0316 µM
[2] = second compound 0.00316 µM, first compound 0.1 µM
[3] = second compound 0.01 µM, first compound 0.0316 µM
[4] = second compound 0.01 µM, first compound 0.1 µM
[5] = second compound 0.0316 µM, first compound 0.0316 µM
[6] = second compound 0.0316 µM, first compound 0.1 µM
[7] = second compound 0.1 µM, first compound 0.0316 µM
[8] = second compound 0.1 µM, first compound 0.1 µM
[9] = second compound 0.316 µM, first compound 0.0316 µM
[10] = second compound 0.316 µM, first compound 0.1 µM
[11] = second compound 1 µM, first compound 0.0316 µM
[12] = second compound 1 µM, first compound 0.1 µM
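Note: spheroids exposed to agents for seven days before read-out.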

Q: What does the source list for `CC1(C)CCC(Nc2ncc(C(F)(F)F)c(-c3c[nH]c4c(P(C)(C)=O)c(C#N)ccc34)n2)CN1` (centres undefined) + COc1c(OCCCN2CCOCC2)ccc2c3n(c(=NC(=O)c4cnc(N)nc4)nc12)CCN3?
A: IC50 (second compound 0.00316 µM): > 10000 nM; IC50 (second compound 0.01 µM): > 10000 nM; IC50 (second compound 0.0316 µM): 6600 nM; IC50 (second compound 0.1 µM): 9230 nM; IC50 (second compound 0.316 µM): 4720 nM; IC50 (second compound 1 µM): 31.6 nM; viability, T/C [1]: 104%; viability, T/C [2]: 99.5%; viability, T/C (second compound 0.00316 µM, first compound 0.316 µM): 66.3%; viability, T/C (second compound 0.00316 µM, first compound 1 µM): 60.1%; viability, T/C (second compound 0.00316 µM, first compound 3.16 µM): 60.3%; viability, T/C (second compound 0.00316 µM, first compound 10 µM): 52.9%; viability, T/C [3]: 113%; viability, T/C [4]: 103%; viability, T/C (second compound 0.01 µM, first compound 0.316 µM): 67.3%; viability, T/C (second compound 0.01 µM, first compound 1 µM): 61.6%; viability, T/C (second compound 0.01 µM, first compound 3.16 µM): 67.3%; viability, T/C (second compound 0.01 µM, first compound 10 µM): 48.8%; viability, T/C [5]: 94.6%; viability, T/C [6]: 77.5%; viability, T/C (second compound 0.0316 µM, first compound 0.316 µM): 68.5%; viability, T/C (second compound 0.0316 µM, first compound 1 µM): 69.4%; viability, T/C (second compound 0.0316 µM, first compound 3.16 µM): 61.6%; viability, T/C (second compound 0.0316 µM, first compound 10 µM): 42.7%; viability, T/C [7]: 79.6%; viability, T/C [8]: 86.6%; viability, T/C (second compound 0.1 µM, first compound 0.316 µM): 63.7%; viability, T/C (second compound 0.1 µM, first compound 1 µM): 69%; viability, T/C (second compound 0.1 µM, first compound 3.16 µM): 68.7%; viability, T/C (second compound 0.1 µM, first compound 10 µM): 46.1%; viability, T/C [9]: 58.3%; viability, T/C [10]: 64%; viability, T/C (second compound 0.316 µM, first compound 0.316 µM): 59%; viability, T/C (second compound 0.316 µM, first compound 1 µM): 54.7%; viability, T/C (second compound 0.316 µM, first compound 3.16 µM): 57.8%; viability, T/C (second compound 0.316 µM, first compound 10 µM): 37.3%; viability, T/C [11]: 51.6%; viability, T/C [12]: 48.9%; viability, T/C (second compound 1 µM, first compound 0.316 µM): 48.8%; viability, T/C (second compound 1 µM, first compound 1 µM): 42.7%; viability, T/C (second compound 1 µM, first compound 3.16 µM): 50.7%; viability, T/C (second compound 1 µM, first compound 10 µM): 27.2%

Q: Which IC50 (second compound 0.00316 µM) does the source give for `Cn1ncnc1[C@H]1c2n[nH]c(=O)c3cc(F)cc(c23)N[C@@H]1c1ccc(F)cc1` + CC(Nc1ccc2c(c1)OCCn1cc(N3C(=O)OCC3C(F)F)nc1-2)C(N)=O here?
A: The IC50 was greater than 100 nM.

Q: What about the IC50 (second compound 0.01 µM) of the same compound?
A: The IC50 was greater than 100 nM.

Q: What about the IC50 (second compound 0.0316 µM) of the same compound?
A: The IC50 was greater than 100 nM.

Q: And the IC50 (second compound 0.1 µM)?
A: Its IC50 is greater than 100 nM.

Q: And the IC50 (second compound 0.316 µM)?
A: Its IC50 is greater than 100 nM.

Q: What about the IC50 (second compound 1 µM) of the same compound?
A: The IC50 was greater than 100 nM.

Q: And the viability, T/C (second compound 0.00316 µM, first compound 0.000316 µM)?
A: The viability, T/C was 112%.

Q: And the viability, T/C (second compound 0.00316 µM, first compound 0.001 µM)?
A: Its viability, T/C is 92.8%.

Q: What about the viability, T/C (second compound 0.00316 µM, first compound 0.00316 µM) of the same compound?
A: Its viability, T/C is 100%.

Q: What about the viability, T/C (second compound 0.00316 µM, first compound 0.01 µM) of the same compound?
A: Its viability, T/C is 96.5%.

Q: What about the viability, T/C [1] of the same compound?
A: The viability, T/C was 102%.

Q: What about the viability, T/C [2] of the same compound?
A: The viability, T/C was 95.4%.

Q: And the viability, T/C (second compound 0.01 µM, first compound 0.000316 µM)?
A: The viability, T/C was 114%.

Q: And the viability, T/C (second compound 0.01 µM, first compound 0.001 µM)?
A: Its viability, T/C is 92.8%.

Q: What about the viability, T/C (second compound 0.01 µM, first compound 0.00316 µM) of the same compound?
A: Its viability, T/C is 99.2%.

Q: What about the viability, T/C (second compound 0.01 µM, first compound 0.01 µM) of the same compound?
A: Its viability, T/C is 93.8%.

Q: What about the viability, T/C [3] of the same compound?
A: Its viability, T/C is 95.9%.

Q: What about the viability, T/C [4] of the same compound?
A: The viability, T/C was 94.3%.

Q: What about the viability, T/C (second compound 0.0316 µM, first compound 0.000316 µM) of the same compound?
A: Its viability, T/C is 104%.

Q: What about the viability, T/C (second compound 0.0316 µM, first compound 0.001 µM) of the same compound?
A: The viability, T/C was 99%.

Q: And the viability, T/C (second compound 0.0316 µM, first compound 0.00316 µM)?
A: Its viability, T/C is 89.3%.

Q: And the viability, T/C (second compound 0.0316 µM, first compound 0.01 µM)?
A: The viability, T/C was 100%.

Q: And the viability, T/C [5]?
A: Its viability, T/C is 98.5%.

Q: And the viability, T/C [6]?
A: Its viability, T/C is 96.9%.

Q: And the viability, T/C (second compound 0.1 µM, first compound 0.000316 µM)?
A: Its viability, T/C is 92%.

Q: And the viability, T/C (second compound 0.1 µM, first compound 0.001 µM)?
A: The viability, T/C was 100%.

Q: And the viability, T/C (second compound 0.1 µM, first compound 0.00316 µM)?
A: The viability, T/C was 99%.

Q: What about the viability, T/C (second compound 0.1 µM, first compound 0.01 µM) of the same compound?
A: The viability, T/C was 95.1%.

Q: What about the viability, T/C [7] of the same compound?
A: The viability, T/C was 104%.

Q: What about the viability, T/C [8] of the same compound?
A: Its viability, T/C is 89.8%.

Q: What about the viability, T/C (second compound 0.316 µM, first compound 0.000316 µM) of the same compound?
A: The viability, T/C was 90.6%.

Q: And the viability, T/C (second compound 0.316 µM, first compound 0.001 µM)?
A: The viability, T/C was 89.5%.

Q: What about the viability, T/C (second compound 0.316 µM, first compound 0.00316 µM) of the same compound?
A: The viability, T/C was 96%.

Q: And the viability, T/C (second compound 0.316 µM, first compound 0.01 µM)?
A: Its viability, T/C is 91.6%.

Q: And the viability, T/C [9]?
A: The viability, T/C was 100%.

Q: And the viability, T/C [10]?
A: The viability, T/C was 92.6%.

Q: And the viability, T/C (second compound 1 µM, first compound 0.000316 µM)?
A: The viability, T/C was 88.4%.

Q: What about the viability, T/C (second compound 1 µM, first compound 0.001 µM) of the same compound?
A: Its viability, T/C is 92.2%.

Q: What about the viability, T/C (second compound 1 µM, first compound 0.00316 µM) of the same compound?
A: The viability, T/C was 88.8%.

Q: And the viability, T/C (second compound 1 µM, first compound 0.01 µM)?
A: Its viability, T/C is 88.6%.

Q: And the viability, T/C [11]?
A: The viability, T/C was 93.6%.

Q: What about the viability, T/C [12] of the same compound?
A: Its viability, T/C is 86.9%.
